Patent publication US20250230155A1 (Vanderbilt University, priority 2021, published 2025)

Molecular target: T1, human mAChR M4 (Homo sapiens, UniProt P08173)
T1 construct: expressed in transfected cells
T1 sequence (P08173 1-479): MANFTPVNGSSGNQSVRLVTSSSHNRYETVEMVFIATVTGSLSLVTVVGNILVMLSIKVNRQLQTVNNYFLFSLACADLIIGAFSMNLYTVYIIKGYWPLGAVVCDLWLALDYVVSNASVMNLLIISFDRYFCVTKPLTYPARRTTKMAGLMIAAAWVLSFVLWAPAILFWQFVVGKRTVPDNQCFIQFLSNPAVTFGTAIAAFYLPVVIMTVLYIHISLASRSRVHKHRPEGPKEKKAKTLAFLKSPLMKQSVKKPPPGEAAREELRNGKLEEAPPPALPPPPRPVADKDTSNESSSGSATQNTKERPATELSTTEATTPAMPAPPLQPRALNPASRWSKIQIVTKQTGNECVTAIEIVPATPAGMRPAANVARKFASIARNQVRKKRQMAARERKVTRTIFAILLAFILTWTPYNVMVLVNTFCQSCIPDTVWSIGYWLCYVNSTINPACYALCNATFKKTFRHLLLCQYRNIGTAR
Assay: mAChR M4 cell-based functional assay (calcium mobilization, CHO-K1 hM4-Gqi5 cells)
Conditions: for Emax at 30 µM: CHO-K1, % ACh maximum at 30 μM, human M4; for EC50: positive allosteric modulator activity, increase in the EC20 acetylcholine response, CHO-K1 hM4-Gqi5 cells, read-out: Human M4 EC50
Procedure: Human and rat M4 cDNAs, along with the chimeric G protein Gqi5, were transfected into Chinese hamster ovary (CHO-K1) cells purchased from the American Type Culture Collection using Lipofectamine2000. hM4-Gqi5 cells were grown in Ham's F-12 medium containing 10% heat-inactivated fetal bovine serum (FBS), 20 mM HEPES, 50 μg/mL G418 sulfate, and 500 μg/mL Hygromycin B. rM4-Ggi5 cells were grown in DiVEM containing 10% heat-inactivated FBS, 20 mM THEPES, 400 μμg/mL G418 sulfate, and 500 μμg/mL Hygromycin B.
For high throughput measurement of agonist-evoked increases in intracellular calcium, CHO-K1 cells stably expressing muscarinic receptors were plated in growth medium lacking G418 and hygromycin at 15,000 cells/20 μL/well in Greiner 384-well black-walled, tissue culture (TC)-treated, clear-bottom plates (VWR). Cells were incubated overnight at 37° C. and 5% CO2. The next day, cells were washed using an ELX 405 (BioTek) with assay buffer; the final volume was then aspirated to 20 μL. Next, 20 μL of a […] of Fluo-4/acetoxymethyl ester (Invitrogen, Carlsbad, CA), prepared as a 2.3 mM stock in DMSO and mixed in a 1:1 ratio with 10% (w/v) Pluronic F-127 and diluted in assay buffer, was added to the wells and the cell plates were incubated for 50 min at 37° C. and 5% C02. Dye was removed by washing with the ELX 405 and the final volume was aspirated to 20 μL. Compound master plates were formatted in an 11 point concentration-response curve (CRC) format (1:3 dilutions) in 100% DMSO with a starting concentration of 10 mM using a BRAVO liquid handler (Agilent). Test compound CRCs were then transferred to daughter plates (240 nL) using the Echo acoustic plate reformatter (Labcyte, Sunnyvale, CA) and then diluted into assay buffer (40 μL) to a 2× stock using a Thermo Fisher Combi (Thermo Fisher Scientific, Waltham, MA).
Calcium flux was measured using the Functional Drug Screening System (FDSS) 6000 or 7000 (Hamamatsu Corporation, Tokyo, Japan) as an increase in the fluorescent static ratio. Compounds were applied to cells (20 μL, 2×) using the automated system of the FDSS at 2-4 seconds into the protocol and the data were collected at 1 Hz. At 144 seconds, 10 μL of an EC20 concentration of the muscarinic receptor agonist acetylcholine was added (5×), followed by the addition of 12 μL of an EC80 concentration of acetylcholine at the 230 second time point (5×). Agonist activity was analyzed as a concentration-dependent increase in calcium mobilization upon compound addition. Positive allosteric modulator activity was analyzed as a concentration-dependent increase in the EC20 acetylcholine response. Antagonist activity was analyzed as a concentration-dependent decrease in the EC80 acetylcholine response. Concentration-response curves were generated using a four-parameter logistical equation in XLFit curve fitting software (IDBS, Bridgewater, NJ) for Excel (Microsoft, Redmond, WA) or Prism (GraphPad Software, Inc., San Diego, CA).
Compounds were synthesized as described above. Activity (EC50 and Emax) was determined in the mAChR M4 cell-based functional assay as described above and the data are shown in Table 2. The compound number corresponds to the compound numbers used in Table 1.

Row | SMILES | Emax at 30 µM [%] | EC50 [nM]
1 | Cc1cc(C(=O)NCc2cnc3ccccc3c2)cnc1N1CCc2ncccc2C1 [compound 140, 6-(7,8-dihydro-5H-1,6-naphthyridin-6-yl)-5-methyl-N-(3-quinolylmethyl)pyridine-3-carboxamide] | 62 | 1030
2 | Cc1ccc(OCCOc2cnc3c(c2)CN(c2ncc(C#N)cc2C)CC3)cc1 [Example 431, 5-methyl-6-(3-(2-(p-tolyloxy)ethoxy)-7,8-dihydro-1,6-naphthyridin-6(5H)-yl)nicotinonitrile] | 47 | ≥ 10000
3 | Cc1cc(C#N)cnc1N1CCc2ncc(Nc3ccnn3C)cc2C1 [Example 306, 5-methyl-6-(3-((1-methyl-1H-pyrazol-5-yl)amino)-7,8-dihydro-1,6-naphthyridin-6(5H)-yl)nicotinonitrile] | 109 | 23
4 | COCc1nc(Cl)c(C)c(N2CCc3ncc(-c4cncs4)cc3C2)n1 [compound 217, 5-(6-(6-chloro-2-(methoxymethyl)-5-methylpyrimidin-4-yl)-5,6,7,8-tetrahydro-1,6-naphthyridin-3-yl)thiazole] | 96 | 539
5 | Cc1cc(C(=O)NCc2cncs2)cnc1N1CCc2ncc(C(F)(F)F)cc2C1 [Example 443, 5-methyl-N-(thiazol-5-ylmethyl)-6-(3-(trifluoromethyl)-7,8-dihydro-1,6-naphthyridin-6(5H)-yl)nicotinamide] | 107 | 157
6 | Cc1c(C#N)nnc(N2CCc3ncc(-c4ccc(N(C)C)nc4)cc3C2)c1C [Example 312, 6-(3-(6-(dimethylamino)pyridin-3-yl)-7,8-dihydro-1,6-naphthyridin-6(5H)-yl)-4,5-dimethylpyridazine-3-carbonitrile] | 50 | 458
7 | Cc1cc(C#N)nnc1N1CCc2ncc(N3CCCn4nccc43)cc2C1 [Example 360, 6-(3-(6,7-dihydropyrazolo[1,5-a]pyrimidin-4(5H)-yl)-7,8-dihydro-1,6-naphthyridin-6(5H)-yl)-5-methylpyridazine-3-carbonitrile] | 129 | 88
8 | Cc1cc(C(=O)NCc2ccc(-n3cccn3)cc2)cnc1N1CCc2ncccc2C1 [compound 67, 6-(7,8-dihydro-5H-1,6-naphthyridin-6-yl)-5-methyl-N-[(4-pyrazol-1-ylphenyl)methyl]pyridine-3-carboxamide] | 55 | 1940
9 | Cc1cc(C#N)nnc1N1CCc2ncc(C3CCC3)cc2C1 [Example 402, 6-(3-cyclobutyl-7,8-dihydro-1,6-naphthyridin-6(5H)-yl)-5-methylpyridazine-3-carbonitrile] | 91 | 150

The remaining lines, values ahead:

Row | Emax at 30 µM [%] | EC50 [nM] | SMILES
10 | 100 | 111 | Cc1c(C#N)nnc(N2CCc3ncc(Nc4ccnn4C)cc3C2)c1C [compound 169, 4,5-dimethyl-6-[3-[(2-methylpyrazol-3-yl)amino]-7,8-dihydro-5H-1,6-naphthyridin-6-yl]pyridazine-3-carbonitrile]
11 | 80 | 611 | Cc1nc(Cl)c(C)c(N2CCc3ncc(-c4cnn(C5CCC5)c4)cc3C2)n1 [compound 195, 6-(6-chloro-2,5-dimethyl-pyrimidin-4-yl)-3-(1-cyclobutylpyrazol-4-yl)-7,8-dihydro-5H-1,6-naphthyridine]
12 | 75 | 1030 | Cc1nc(C(F)(F)F)nc(N2CCc3ncc(C(F)(F)F)cc3C2)c1C [compound 252, 6-(5,6-dimethyl-2-(trifluoromethyl)pyrimidin-4-yl)-3-(trifluoromethyl)-5,6,7,8-tetrahydro-1,6-naphthyridine]
13 | 82 | 992 | Cc1cc(C#N)cnc1N1Cc2cc(C(F)(F)F)cnc2C(C)C1 (stereo not shown) [Example 347, 5-methyl-6-(8-methyl-3-(trifluoromethyl)-7,8-dihydro-1,6-naphthyridin-6(5H)-yl)nicotinonitrile]
14 | 70 | 109 | [2H]C([2H])([2H])c1cnc2c(c1)CN(c1nnc(C(=O)N3CC4(COC4)C3)cc1C)CC2 [Example 577, (5-methyl-6-(3-(methyl-d3)-7,8-dihydro-1,6-naphthyridin-6(5H)-yl)pyridazin-3-yl)(2-oxa-6-azaspiro[3.3]heptan-6-yl)methanone]
15 | 72 | 714 | Cc1cc(C(=O)NCc2ccc(Cl)nc2Cl)cnc1N1CCc2ncc(-c3cn(C)nc3C)cc2C1 [Example 462, N-((2,6-dichloropyridin-3-yl)methyl)-6-(3-(1,3-dimethyl-1H-pyrazol-4-yl)-7,8-dihydro-1,6-naphthyridin-6(5H)-yl)-5-methylnicotinamide]
16 | 73 | 41 | Cc1cc(C(=O)N2CC(F)(F)C2)nnc1N1CCc2ncc(Nc3ccnn3C)cc2C1 [Example 566, (3,3-difluoroazetidin-1-yl)(5-methyl-6-(3-((1-methyl-1H-pyrazol-5-yl)amino)-7,8-dihydro-1,6-naphthyridin-6(5H)-yl)pyridazin-3-yl)methanone]
17 | 102 | 537 | Cc1cc(C(N)=O)cnc1N1CCc2ncc(C(F)(F)F)cc2C1 [Example 448, 5-methyl-6-(3-(trifluoromethyl)-7,8-dihydro-1,6-naphthyridin-6(5H)-yl)nicotinamide]
18 | 108 | 138 | Cc1cnc2c(c1)CN(c1ncc(C(=O)NCc3cncs3)cc1C)CC2 [Example 439, 5-methyl-6-(3-methyl-7,8-dihydro-1,6-naphthyridin-6(5H)-yl)-N-(thiazol-5-ylmethyl)nicotinamide]
19 | 70 | 896 | Cc1nn(C)cc1-c1cnc2c(c1)CN(c1nc(N3CCOCC3)nc(C)c1C)CC2 [compound 270, 4-(4-(3-(1,3-dimethyl-1H-pyrazol-4-yl)-7,8-dihydro-1,6-naphthyridin-6(5H)-yl)-5,6-dimethylpyrimidin-2-yl)morpholine]
20 | 57 | 689 | Cc1cc(Nc2cnc3c(c2)CN(c2ncc(C#N)cc2C)CC3)n(C(C)C)n1 [Example 316, 6-(3-((1-isopropyl-3-methyl-1H-pyrazol-5-yl)amino)-7,8-dihydro-1,6-naphthyridin-6(5H)-yl)-5-methylnicotinonitrile]
21 | 82 | 1440 | Cc1c(Cl)nc(C(F)(F)F)nc1N1CCc2ncc(Nc3cccnc3F)cc2C1 [compound 249, 6-(6-chloro-5-methyl-2-(trifluoromethyl)pyrimidin-4-yl)-N-(2-fluoropyridin-3-yl)-5,6,7,8-tetrahydro-1,6-naphthyridin-3-amine]
22 | 87 | 51 | Cc1cc(C(=O)N2CC(F)C2)nnc1N1CCc2ncc(N3CCO[C@H](C)C3)cc2C1 [Example 572, (R)-(3-fluoroazetidin-1-yl)(5-methyl-6-(3-(2-methylmorpholino)-7,8-dihydro-1,6-naphthyridin-6(5H)-yl)pyridazin-3-yl)methanone]
23 | 67 | 3250 | Cc1cc(C(=O)NCc2ccc3ncnn3c2)cnc1N1CCc2ncccc2C1 [compound 151, 6-(7,8-dihydro-5H-1,6-naphthyridin-6-yl)-5-methyl-N-([1,2,4]triazolo[1,5-a]pyridin-6-ylmethyl)pyridine-3-carboxamide]
